Drawing on ChEMBL document CHEMBL5236615, “Discovery of Novel N-Heterocyclic-Fused Deoxypodophyllotoxin Analogues as Tubulin Polymerization Inhibitors Targeting the Colchicine-Binding Site for Cancer Treatment” (J Med Chem, 2022), this text covers Activity, MRT last and Vd for 1 molecule.

Data set [1] deals with Tubulin beta (Homo sapiens) (UniProt P68371+Q9H4B7+Q13509+P04350+Q3ZCM7+P07437+Q13885+Q9BVA1+Q9BUF5+A6NNZ2). As to the kind of experiment: Binding affinity to beta-tubulin colchicine binding site in human MCF-7 cells assessed as inhibition of EBI-beta-tubulin adduct band formation preincubated for 2 hrs followed by EBI addition and measured after 1.5 hrs by EBI competition based Western blotting analysis. It is filed as cell-based. Conditions: MCF7, dose 0.2-25 µM, time 3.5 hrs.

Data set [2] can be described thus: MRT (0 to t) in Sprague-Dawley rat at 10 mg/kg, iv measured upto 8 hrs by LC/MS/MS analysis. The data set is classed as ADME, organism-based. Conditions: in vivo.
A short description of data set [3]: Cardiotoxicity in Sprague-Dawley rat assessed as heart rate at 10 to 60 mg/kg, iv measured upto 60 mins by electrocardiography. It is filed as toxicity, organism-based. The following applies: in vivo, 1 h, dose 10-60 mg/kg.
For a further data set, the system named is MCF7. As to the kind of experiment: Antiproliferative activity against human MCF7 cells assessed as survival rate at 20 nM measured after 72 hrs by MTT assay relative to control. The data set is classed as functional.
Data set [4] can be described thus: Toxicity in Balb/c mouse assessed as pathological changes in blood urea nitrogen level at 20 mg/kg, ip administered for every 2 days for 14 days. It is filed as organism-based. Conditions: in vivo, 336 h, time 14 day.
A short description of data set [5]: Volume of distribution at steady sate in Sprague-Dawley rat at 10 mg/kg, iv measured upto 8 hrs by LC/MS/MS analysis. Conditions: in vivo, read-out: Vdss. The data set is classed as ADME, organism-based.

Take `COc1c(Cl)cc([C@@H]2c3cc4c(cc3C[C@H]3C(=O)NC(=O)N23)OCCO4)cc1Cl`: the Activity entry was “Dose-Dependent Effect” in data set [1], “Non-Toxic” in data set [3], 31.55% in the data set on MCF7 and “Non-Toxic” in data set [4]. The molecule further displayed an MRT last at 8 h in data set [2] of 1.79 h. In data set [5], the Vd turned out to be 6.99 L/kg.
